Measured values reported in patent US20250221988A1 (Cullgen (Shanghai), Inc., priority 2022, published 2025).
pIC50: −log10 of the molar value. Read-outs that look alike come from different tables or passages of the source.

Assays:
Assay type in all cases: cell-based
NCI-H82 cells = assay: Cell viability assay in NCI-H82 cells; conditions: Homo sapiens
Procedure: (§1) Cell Culture: RS4;11, MV4;11, MOLM-13 and other cells were cultured at 37° C. with 5% CO2 in RPMI 1640 or DMEM Medium supplemented with 10% fetal bovine serum. Cells were authenticated using the short tandem repeat (STR) assays. Mycoplasma test results were negative.
(§2) Cell viability assays: Cells were seeded at a density of 5000 cells per well in 96-well assay plates and treated with test compounds following a 8-point or 12-point 3-fold serial dilution. Three days later, cell viability was determined using the CellTiter-Glo assay kit according to the manufacturer's instructions. The dose-response curves were determined and IC50 values were calculated using the GraphPad Prism software following a nonlinear regression (least squares fit) method.
(§3) The compounds were tested in HEL, 22RV1, NCI-H82 or NCI-H1155 cells.

GSPT1 = GSPT1 (Homo sapiens, UniProt P15170+Q96SW2); assay: Immunoblotting of GSPT1 in MOLM-13 cells; set-up: endogenous in cells; host or cells: MOLM-13; conditions: indicated concentrations, 16 hours
Procedure: as §1
Antibodies and reagents: Rabbit anti-FLT3 antibody (3462S) was purchased from Cell Signaling Technology. Rabbit anti-GSPT1 antibody (ab126090) was purchased from Abeam. HRP-conjugated anti-α-tubulin antibody was produced in house. Media and other cell culture reagents were purchased from Thermo Fisher. The CellTiter-Glo Luminescent Assay kit was purchased from Promega.
Immunoblotting: Cultured cells were washed with cold PBS once and lysed in cold RIPA buffer supplemented with protease inhibitors and phosphatase inhibitors (Beyotime Biotechnology). The solutions were then incubated at 4° C. for 30 minutes with gentle agitation to fully lyse cells. Cell lysates were centrifuged at 13,000 rpm for 10 minutes at 4° C. and pellets were discarded. Total protein concentrations in the lysates were determined by BCA assays (Beyotime Biotechnology). Cell lysates were mixed with Laemmli loading buffer to 1× and heated at 99° C. for 5 min. Proteins were resolved on SDS-PAGE and visualized by chemiluminescence. Images were taken by a ChemiDoc MP Imaging system (Bio-Rad). Protein bands were quantitated using the accompanied software provided by Bio-Rad.

MOLM-13 cells = assay: Cell viability assay (CellTiter-Glo) in MOLM-13 cells; conditions: for pIC50: 72 h, compound alone, read-out: MOLM-13 IC50
MV4;11 cells = assay: Cell viability assay (CellTiter-Glo) in MV4;11 cells; conditions: read-out: MV4; for pIC50: compound alone, 11 IC50
Summary of the method: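 After three days' exposure to 3-fold serial compound dilutions (8 or 12 points), viability of cells seeded at 5000/well is read by CellTiter-Glo. Runs were done alone or combined with gilteritinib at 10 nM (MV4;11) or 20 nM (MOLM-13); IC50 from nonlinear regression.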

NCI-H1155 cells = assay: Cell viability assay in NCI-H1155 cells; conditions: Homo sapiens, read-out: NCI-H115 IC50
Procedure: as §1, §2, §3

HEL cells = assay: Cell viability assay in HEL cells; conditions: Homo sapiens
Procedure: as §1, §2, §3

[1] = Homo sapiens, MOLM-13 cells, three days
[2] = MOLM-13 cells, with gilteritinib, three days, read-out: MOLM-13 IC50 (nM) + 10 nM Gil
[3] = Homo sapiens, MV4-11, 72 h, MV4;11 cells, three days
[4] = MV4;11 cells, with 10 nM gilteritinib, three days, 11 IC50 (nM) + 10 nM Gil

GSPT1, sequence (P15170 whole entry): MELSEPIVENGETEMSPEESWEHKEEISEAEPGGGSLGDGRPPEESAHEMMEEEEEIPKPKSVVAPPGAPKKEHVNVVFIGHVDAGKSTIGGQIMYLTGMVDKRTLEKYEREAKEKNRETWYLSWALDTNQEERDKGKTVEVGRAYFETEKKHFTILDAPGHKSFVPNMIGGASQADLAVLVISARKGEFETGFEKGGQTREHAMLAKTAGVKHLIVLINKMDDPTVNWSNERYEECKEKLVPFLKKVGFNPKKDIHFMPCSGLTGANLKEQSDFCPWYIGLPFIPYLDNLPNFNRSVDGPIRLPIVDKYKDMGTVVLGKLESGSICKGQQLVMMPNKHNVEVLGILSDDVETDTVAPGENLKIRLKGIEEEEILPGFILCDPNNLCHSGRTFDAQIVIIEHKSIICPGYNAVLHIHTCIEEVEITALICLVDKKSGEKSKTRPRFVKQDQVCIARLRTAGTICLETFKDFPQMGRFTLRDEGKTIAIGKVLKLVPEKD
GSPT1, sequence (Q96SW2 whole entry): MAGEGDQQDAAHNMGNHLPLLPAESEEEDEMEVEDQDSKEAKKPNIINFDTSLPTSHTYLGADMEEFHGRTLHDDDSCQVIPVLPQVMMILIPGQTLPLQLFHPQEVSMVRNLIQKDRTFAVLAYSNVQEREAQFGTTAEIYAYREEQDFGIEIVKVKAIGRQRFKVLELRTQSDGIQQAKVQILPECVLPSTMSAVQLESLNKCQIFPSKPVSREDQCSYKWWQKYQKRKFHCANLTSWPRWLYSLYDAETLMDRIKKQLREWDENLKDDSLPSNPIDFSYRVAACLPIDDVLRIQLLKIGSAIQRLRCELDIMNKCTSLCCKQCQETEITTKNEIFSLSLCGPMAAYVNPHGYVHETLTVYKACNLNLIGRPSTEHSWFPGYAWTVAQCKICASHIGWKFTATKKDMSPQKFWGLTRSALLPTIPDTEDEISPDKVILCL
GSPT1, sequence (Q16531 whole entry partner): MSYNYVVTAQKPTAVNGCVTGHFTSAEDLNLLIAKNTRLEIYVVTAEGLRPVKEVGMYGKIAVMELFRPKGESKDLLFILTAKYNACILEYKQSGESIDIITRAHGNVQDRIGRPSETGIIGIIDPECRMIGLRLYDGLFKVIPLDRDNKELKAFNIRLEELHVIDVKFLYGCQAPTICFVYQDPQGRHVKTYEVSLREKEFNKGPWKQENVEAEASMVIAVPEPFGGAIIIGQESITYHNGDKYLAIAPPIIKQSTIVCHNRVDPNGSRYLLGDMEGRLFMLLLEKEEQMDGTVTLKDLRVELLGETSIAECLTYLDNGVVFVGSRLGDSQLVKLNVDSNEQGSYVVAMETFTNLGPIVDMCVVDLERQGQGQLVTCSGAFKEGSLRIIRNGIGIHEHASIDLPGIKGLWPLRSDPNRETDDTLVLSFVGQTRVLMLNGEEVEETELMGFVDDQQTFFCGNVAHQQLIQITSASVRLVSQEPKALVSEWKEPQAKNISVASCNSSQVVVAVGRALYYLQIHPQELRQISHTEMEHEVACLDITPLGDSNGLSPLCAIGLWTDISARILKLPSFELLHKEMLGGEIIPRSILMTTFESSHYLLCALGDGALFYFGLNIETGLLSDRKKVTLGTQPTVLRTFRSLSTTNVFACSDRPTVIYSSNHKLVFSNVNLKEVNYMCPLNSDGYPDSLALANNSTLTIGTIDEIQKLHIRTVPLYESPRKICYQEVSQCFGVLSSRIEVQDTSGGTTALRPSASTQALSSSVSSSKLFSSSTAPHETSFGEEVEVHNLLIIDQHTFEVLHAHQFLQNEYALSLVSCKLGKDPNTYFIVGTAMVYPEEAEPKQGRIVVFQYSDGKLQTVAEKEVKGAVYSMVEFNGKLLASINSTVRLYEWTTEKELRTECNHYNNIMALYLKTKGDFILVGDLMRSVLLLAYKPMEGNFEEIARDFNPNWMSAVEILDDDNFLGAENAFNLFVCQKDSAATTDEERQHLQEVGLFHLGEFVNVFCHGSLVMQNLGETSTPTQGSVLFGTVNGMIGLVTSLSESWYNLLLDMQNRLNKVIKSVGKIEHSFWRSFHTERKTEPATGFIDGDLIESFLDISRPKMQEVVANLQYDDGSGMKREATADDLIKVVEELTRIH

CNc1nc(-c2cn([C@H]3C[C@H](CNc4ccc5c(c4)CN(C4CCC(=O)NC4=O)C5=O)C3)nc2C2CC2)ccc1F (stereo partly drawn) [GS-808, 3-(5-(((Trans-3-(3-cyclopropyl-4-(5-fluoro-6-(methylamino)pyridin-2-yl)-1H-pyrazol-1-yl)cyclobutyl)methyl)amino)-1-oxoisoindolin-2-yl)piperidine-2,6-dione]
pIC50 (NCI-H82 cells): > 8.00

Cc1nc(-c2cn([C@H]3C[C@H](CNc4ccc5c(c4)CN(C4CCC(=O)NC4=O)C5=O)C3)nc2C2CC2)ccc1F (stereo partly drawn) [GS-731, 3-(5-(((Trans-3-(3-cyclopropyl-4-(5-fluoro-6-methylpyridin-2-yl)-1H-pyrazol-1-yl)cyclobutyl)methyl)amino)-1-oxoisoindolin-2-yl)piperidine-2,6-dione]
small molecule-mediated targeted degradation of GSPT1 (GSPT1): targeted degradation of GSPT1 | pIC50 (MOLM-13 cells; [1]): 7.00 to 8.00 | IC50 (MOLM-13 cells; [2]): < 10 nM | pIC50 (MV4;11 cells; [3]): > 8.00 | IC50 (MV4;11 cells; [4]): < 10 nM

Cc1nc(-c2cn([C@H]3C[C@H](CNc4ccc5c(c4)CN(C4CCC(=O)NC4=O)C5=O)C3)nc2C2CC2)c(Cl)cc1F (some centres unmarked) [GS-812]
pIC50 (NCI-H82 cells): > 8.00

Cc1nc(-c2cn([C@H]3C[C@H](CNc4ccc5c(c4)CN(C4CCC(=O)NC4=O)C5=O)C3)nc2C2CC2)c(F)cc1F (stereo partly drawn) [GS-809, 3-(5-(((trans-3-(3-cyclopropyl-4-(3,5-difluoro-6-methylpyridin-2-yl)-1H-pyrazol-1-yl)cyclobutyl)methyl)amino)-1-oxoisoindolin-2-yl)piperidine-2,6-dione]
pIC50 (NCI-H1155 cells): > 8.00

O=C1CCC(N2Cc3cc(NC[C@H]4C[C@H](n5cc(-c6ccc(F)c(C(F)(F)F)n6)c(C6CC6)n5)C4)ccc3C2=O)C(=O)N1 (stereo partly drawn) [GS-803, 3-(5-(((Trans-3-(3-cyclopropyl-4-(5-fluoro-6-(trifluoromethyl)pyridin-2-yl)-1H-pyrazol-1-yl)cyclobutyl)methyl)amino)-1-oxoisoindolin-2-yl)piperidine-2,6-dione]
pIC50 (NCI-H1155 cells): > 8.00 | small molecule-mediated targeted degradation of GSPT1 (GSPT1): targeted degradation of GSPT1 | pIC50 (MOLM-13 cells; [1]): > 8.00

Cn1ncc2ccc(-c3cn([C@H]4C[C@H](CNc5ccc6c(c5)C(=O)N(C5CCC(=O)NC5=O)C6=O)C4)nc3C3CC3)nc21 (stereo partly drawn) [GS-729, 5-(((Trans-3-(3-cyclopropyl-4-(1-methyl-1H-pyrazolo[3,4-b]pyridin-6-yl)-1H-pyrazol-1-yl)cyclobutyl)methyl)amino)-2-(2,6-dioxopiperidin-3-yl)isoindoline-1,3-dione]
small molecule-mediated targeted degradation of GSPT1 (GSPT1): targeted degradation of GSPT1 | pIC50 (MOLM-13 cells; [1]): 7.00 to 8.00 | IC50 (MOLM-13 cells; [2]): < 10 nM | pIC50 (MV4;11 cells; [3]): 7.00 to 8.00 | IC50 (MV4;11 cells; [4]): < 10 nM

CNc1cccc(-c2cn([C@H]3C[C@H](CNc4ccc5c(c4)CN(C4CCC(=O)NC4=O)C5=O)C3)nc2C2CC2)n1 (relative stereo) [GS-811, 3-(5-(((Trans-3-(3-cyclopropyl-4-(6-(methylamino)pyridin-2-yl)-1H-pyrazol-1-yl)cyclobutyl)methyl)amino)-1-oxoisoindolin-2-yl)piperidine-2,6-dione]
pIC50 (NCI-H1155 cells): 7.00 to 8.00

O=C1CCC(N2C(=O)c3ccc(NC[C@H]4C[C@H](n5cc(-c6ncc(F)c7cccnc67)c(C6CC6)n5)C4)cc3C2=O)C(=O)N1 (stereo partly drawn) [GS-697, 5-(((Trans-3-(3-cyclopropyl-4-(5-fluoro-1,7-naphthyridin-8-yl)-1H-pyrazol-1-yl)cyclobutyl)methyl)amino)-2-(2,6-dioxopiperidin-3-yl)isoindoline-1,3-dione]
small molecule-mediated targeted degradation of GSPT1 (GSPT1): targeted degradation of GSPT1 | pIC50 (MOLM-13 cells; [1]): > 8.00 | IC50 (MOLM-13 cells; [2]): < 10 nM | pIC50 (MV4;11 cells; [3]): > 8.00 | IC50 (MV4;11 cells; [4]): < 10 nM

Cc1ccc(Cl)c(-c2cn([C@H]3C[C@H](CNc4ccc5c(c4)CN(C4CCC(=O)NC4=O)C5=O)C3)nc2C2CC2)n1 (stereo partly drawn) [GS-805, 3-(5-(((Trans-3-(4-(3-chloro-6-methylpyridin-2-yl)-3-cyclopropyl-1H-pyrazol-1-yl)cyclobutyl)methyl)amino)-1-oxoisoindolin-2-yl)piperidine-2,6-dione]
pIC50 (HEL cells): > 8.00

O=C1CCC(N2Cc3cc(NC[C@H]4C[C@H](n5cc(-c6ncc(F)c7cccnc67)c(C6CC6)n5)C4)ccc3C2=O)C(=O)N1 (stereo partly drawn) [GS-788, 3-(5-(((Trans-3-(3-cyclopropyl-4-(5-fluoro-1,7-naphthyridin-8-yl)-1H-pyrazol-1-yl)cyclobutyl)methyl)amino)-1-oxoisoindolin-2-yl)piperidine-2,6-dione]
small molecule-mediated targeted degradation of GSPT1 (GSPT1): targeted degradation of GSPT1 | pIC50 (MOLM-13 cells; [1]): > 8.00 | IC50 (MOLM-13 cells; [2]): < 10 nM | pIC50 (MV4;11 cells; [3]): > 8.00 | IC50 (MV4;11 cells; [4]): < 10 nM

Nc1cccc(-c2cn([C@H]3C[C@H](CNc4ccc5c(c4)CN(C4CCC(=O)NC4=O)C5=O)C3)nc2C2CC2)n1 (stereo partly drawn) [GS-810, 3-(5-(((Trans-3-(4-(6-aminopyridin-2-yl)-3-cyclopropyl-1H-pyrazol-1-yl)cyclobutyl)methyl)amino)-1-oxoisoindolin-2-yl)piperidine-2,6-dione]
pIC50 (NCI-H1155 cells): 7.00 to 8.00

O=C1CCC(N2Cc3cc(NC[C@H]4C[C@H](n5cc(-c6ccc(F)c(C(F)F)n6)c(C6CC6)n5)C4)ccc3C2=O)C(=O)N1 (stereo partly drawn) [GS-802, 3-(5-(((Trans-3-(3-cyclopropyl-4-(6-(difluoromethyl)-5-fluoropyridin-2-yl)-1H-pyrazol-1-yl)cyclobutyl)methyl)amino)-1-oxoisoindolin-2-yl)piperidine-2,6-dione]
pIC50 (NCI-H1155 cells): 7.00 to 8.00 | small molecule-mediated targeted degradation of GSPT1 (GSPT1): targeted degradation of GSPT1 | pIC50 (MOLM-13 cells; [1]): 7.00 to 8.00

Cc1cccc2cn([C@H]3C[C@H](CNc4ccc5c(c4)C(=O)N(C4CCC(=O)NC4=O)C5=O)C3)nc12 (stereo partly drawn) [GS-694, 2-(2,6-Dioxopiperidin-3-yl)-5-(((trans-3-(7-methyl-2H-indazol-2-yl)cyclobutyl)methyl)amino)isoindoline-1,3-dione]
pIC50 (MOLM-13 cells; [1]): < 6.00 | IC50 (MOLM-13 cells; [2]): 100 to 1000 nM | pIC50 (MV4;11 cells; [3]): < 6.00 | IC50 (MV4;11 cells; [4]): 100 to 1000 nM

O=C1CCC(N2C(=O)c3ccc(NC[C@H]4C[C@H](n5cc(-c6ccc7cc[nH]c7n6)c(C6CC6)n5)C4)cc3C2=O)C(=O)N1 (stereo partly drawn) [GS-721, 5-(((Trans-3-(3-cyclopropyl-4-(1H-pyrrolo[2,3-b]pyridin-6-yl)-1H-pyrazol-1-yl)cyclobutyl)methyl)amino)-2-(2,6-dioxopiperidin-3-yl)isoindoline-1,3-dione]
pIC50 (MOLM-13 cells; [1]): 7.00 to 8.00 | IC50 (MOLM-13 cells; [2]): < 10 nM | pIC50 (MV4;11 cells; [3]): > 8.00 | IC50 (MV4;11 cells; [4]): < 10 nM

O=C1CCC(N2C(=O)c3ccc(NC[C@H]4C[C@H](n5cc(-c6ccccc6N6CCNCC6)c(C6CC6)n5)C4)cc3C2=O)C(=O)N1 (stereo partly drawn) [GS-652, 5-(((Trans-3-(3-cyclopropyl-4-(2-(piperazin-1-yl)phenyl)-1H-pyrazol-1-yl)cyclobutyl)methyl)amino)-2-(2,6-dioxopiperidin-3-yl)isoindoline-1,3-dione]
pIC50 (MOLM-13 cells; [1]): < 6.00 | IC50 (MOLM-13 cells; [2]): 100 to 1000 nM | pIC50 (MV4;11 cells; [3]): < 6.00 | IC50 (MV4;11 cells; [4]): 10 to 100 nM

CC(C)n1ncc2c(-c3cn([C@H]4C[C@H](CNc5ccc6c(c5)C(=O)N(C5CCC(=O)NC5=O)C6=O)C4)nc3C3CC3)ncc(F)c21 (stereo partly drawn) [GS-791, 5-(((Trans-3-(3-Cyclopropyl-4-(7-fluoro-1-isopropyl-1H-pyrazolo[4,3-c]pyridin-4-yl)-1H-pyrazol-1-yl)cyclobutyl)methyl)amino)-2-(2,6-dioxopiperidin-3-yl)isoindoline-1,3-dione]
IC50 (MOLM-13 cells; Homo sapiens, MOLM-13, 72 h, read-out: MOLM-13 IC50 (nM)): 10 to 100 nM | IC50 (MOLM-13 cells; read-out: MOLM-13 IC50 (nM) + 10 nM Gil, MOLM-13 cells, with gilteritinib, three days): 10 to 100 nM | IC50 (MV4;11 cells; Homo sapiens, MV4-11, 72 h, 11 IC50 (nM)): < 10 nM | IC50 (MV4;11 cells; 11 IC50 (nM) + 10 nM Gil, MV4;11 cells, with 10 nM gilteritinib, three days): < 10 nM

Nc1cnc2c(c1)c(C1CC1)nn2[C@H]1C[C@H](CNc2ccc3c(c2)C(=O)N(C2CCC(=O)NC2=O)C3=O)C1 (stereo partly drawn) [GS-756, 5-(((Trans-3-(5-amino-3-cyclopropyl-1H-pyrazolo[3,4-b]pyridin-1-yl)cyclobutyl)methyl)amino)-2-(2,6-dioxopiperidin-3-yl)isoindoline-1,3-dione]
pIC50 (MOLM-13 cells; [1]): < 6.00 | pIC50 (MV4;11 cells; [3]): < 6.00
